Experimental findings from patent US11872210B2, “Thiol isomerases inhibitors and use thereof” (WESTERN NEW ENGLAND UNIVERSITY, priority 2017, dated 2024) are described below.

In one assay the target is T1, ERp5 (Homo sapiens, UniProt Q15084).
T1 construct: purchased AbCam (Cambridge Mass.)
T1 sequence (Q15084 20-440): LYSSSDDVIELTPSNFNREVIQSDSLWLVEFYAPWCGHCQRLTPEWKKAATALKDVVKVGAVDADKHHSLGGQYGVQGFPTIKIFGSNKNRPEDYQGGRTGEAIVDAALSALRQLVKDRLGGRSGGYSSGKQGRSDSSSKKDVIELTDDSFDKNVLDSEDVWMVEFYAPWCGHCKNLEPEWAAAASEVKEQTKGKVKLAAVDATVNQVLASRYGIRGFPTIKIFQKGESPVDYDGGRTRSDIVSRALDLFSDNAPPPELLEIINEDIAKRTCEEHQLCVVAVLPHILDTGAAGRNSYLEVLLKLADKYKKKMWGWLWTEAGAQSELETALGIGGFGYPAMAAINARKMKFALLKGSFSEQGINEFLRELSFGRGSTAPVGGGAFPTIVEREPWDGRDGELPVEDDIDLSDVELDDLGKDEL
In words: Insulin-based turbidometric assay of thiol isomerase inhibitory activity (ERp5). Type of assay: biochemical. The following applies: insulin turbidity assay, 6 point dose curve. The text has this:
(§1) Recombinant thiol isomerases were purchased from AbCam (Cambridge Mass.), recombinant insulin (bovine), bacitracin, dithiothreitol (DTT) buffers and all other chemicals were purchased from Sigma Aldrich (St. Louis, Mo.; while 384 well clear bottom plates were purchased from Corning (Corning, N.Y.).
(§2) The catalytic reduction of insulin by thiol isomerases in the presence of DTT results in aggregation of insulin chains. The turbidity of insulin aggregation can be monitored spectrophotometrically at an optical density (OD) at 650 nm. This approach has been used by multiple groups to identify thiol isomerase inhibitors in either a kinetic or endpoint fashion. A final concentration of either 10 μg/mL PDI, 30 μg/mL ERp5, 10 μg/mL ERp72 or 10 μg/mL thioredoxin, 125 μM insulin and 2 mM ethylenediaminetetraacetic acid (EDTA) in 30 μL of 100 mM potassium phosphate buffer was added to each experimental well plate, while negative control wells lacked any thiol isomerase. Lead compounds were diluted in a 6 point dose curve and the turbidity of insulin aggregation was measured kinetically each minute for 75 minutes using a Spectramax M3 plate reader (Molecular Devices, Sunnyvale, Calif.) Specificity assay utilized the insulin turbidity assay as well.

A further assay deals with OVCar8 cells. As to the kind of experiment: PrestoBlue cell proliferation assay, OVCar8. Type of assay: cell-based, human. The following applies: OVCar8, ovarian cancer, 24 hours treatment. On the procedure: Cells were plated at 6,000 cells/well in a 96-well plate and treated with the indicated concentration of zafirlukast 24 hours later. Cells were allowed to grow for an additional 24 hours before alterations in growth were measured by the PrestoBlue cell proliferation assay in triplicate. Fluorescence readings with an excitation at 570 nm and emission of 600 nm were collected and treated samples were converted to a percentage of the untreated controls. OVCar8 (human ovarian cancer cell line), HCT116 (human colon cancer), HeLa (cervical cancer cell line) and MDA-MB-231 (breast cancer cell line) cell lines were examined for their ability to inhibit cell proliferation. […] Table 1 illustrates the results of a cell proliferation assay testing zafirlukast against OVCar8 cells, HCT116 cells, HeLa cells and MDA-MB-231 cells.

A further assay concerns the target T2, thioredoxin (TRX) (Homo sapiens, UniProt P10599).
T2 construct: purchased AbCam (Cambridge Mass.)
T2 sequence (P10599 1-105): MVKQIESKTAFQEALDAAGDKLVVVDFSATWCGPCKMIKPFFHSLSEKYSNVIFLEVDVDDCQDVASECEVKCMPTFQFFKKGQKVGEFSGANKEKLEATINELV
As to the kind of experiment: Insulin-based turbidometric assay of thiol isomerase inhibitory activity (thioredoxin). The following applies: insulin turbidity assay, 6 point dose curve. The class given is biochemical.
Excerpt: as §1, §2

The next assay concerns thrombus formation. As to the kind of experiment: Thrombus formation in mice after laser injury of cremaster muscle arterioles (intravital microscopy). The class given is in vivo, C57/BL6 mouse. The following applies: infused to circulating concentration of 20 μM, 5 minutes. On the procedure: The effects of zafirlukast on thrombus formation in mice was determined following laser injury of cremaster muscle arterioles, and observed by intravital microscopy. Male C57/BL6 mouse platelets were labelled with DyLight 649-conjugated anti-GPIb antibody (0.2 μg/g body weight) and either vehicle or zafirlukast (ZFL) infused (at a volume required to achieve a circulating concentration of 20 μM). Following laser injury, images were recorded for 5 minutes. […] FIG. 6 illustrates the effects of ZFL on bleeding were determined by tail bleeding assay. Vehicle or ZFL (at a volume required to achieve a circulating concentration of 20 μM) were infused into the femoral veins of C57/BL6 mice, 5 minutes prior to tail biopsy. 0.5 cm of tail tip was excised and blood collected in phosphate-buffered saline (PBS), and time to cessation of bleeding was recorded. […] Graphs represent mean±SEM, n=10 per treatment, data analyzed by Student's T test, ***p<0.005.

In assay [1] the test system is platelets (fibrinogen receptor αIIbβ3). In words: Fibrinogen binding to αIIbβ3 by flow cytometry. The class given is cell-based, human. On the procedure: Human Platelet Preparation: 50 mL of blood was drawn from drug free, consenting individuals, into a syringe containing 5 mL sodium citrate (4% w/v) and 7.5 mL warmed ACD (85 mM sodium citrate, 71 mM citric acid and 110 mM glucose). Blood was centrifuged at 102 g for 20 minutes to obtain platelet-rich plasma (PRP), which was then decanted and 104 prostacyclin (PGI2 125 μg/mL, solubilized in ethanol) added. Platelets were pelleted by centrifugation at 1413 g for 10 minutes, platelet poor plasma was discarded and the pellet resuspended in 25 mL Tyrode's-HEPES buffer (134 mM NaCl, 2.9 mM KCl, 0.34 mM Na2HPO4, 12 mM NaHCO3, 20 mM HEPES, 1 mM MgCl2 and 5 mM glucose pH 7.3), 3 mL of ACD and 10 μL PGI2 were added and then following centrifugation at 1413 g for 10 minutes, the platelet pellet was re-suspended to the appropriate cell density using Tyrode's buffer. Platelets were rested for 30 minutes at 30° C. to allow platelet responses to recover.
Flow Cytometry: 5 μL platelets (2×10^8 cells/mL) was added to 42 μL HEPES-buffered saline with 1 mM Ca2+. To this, 0.5 μL zafirlukast (0.6 μM-10 μM) or montelukast (0.6 μM-10 μM) or vehicle (0.1% (v/v) DMSO) was added and incubated for 5 minutes. 1 μL anti-human CD62p (1:500 dilution) and 1 μL anti-fibrinogen FITC conjugate (1:500 dilution) or 2 μL of anti-PAC-1 antibody were added to samples. Platelets were treated with 5 μL CRP-XL (1 ug/mL) or 5 μL Tyrode's for 20 minutes in the dark. Samples were then fixed with 450 μL of 0.2% (v/v) paraformaldehyde and analyzed on an accuri C6 flow cytometer (BD Biosciences, UK), with the threshold set to 20,000. Platelet populations were gated and 10,000 events recorded.
(In flow cytometry, cells or beads pass a laser one at a time.)

Structures are written as SMILES.

What is called IC50 is the concentration at which inhibition is half-maximal. A high value points to weaker potency. One may read the inhibition as the share of the control response that was lost under treatment. As to `COc1cc(C(=O)NS(=O)(=O)c2ccccc2C)ccc1Cc1cn(C)c2ccc(NC(=O)OC3CCCC3)cc12` [zafirlukast, 4-(5-cyclopentyloxycarbonylamino-1-methylindol-3-ylmethyl)-3-methoxy-N-o-tolylsulfonylbenzamide], at ERp5, the “inhibitory range on ERp5” value fell in the range of 10 to 300 µM. Also, the IC50 is 5 to 10 µM in the assay on OVCar8 cells (Homo sapiens, OVCAR-8, 24 h) and 6 µM with OVCar8 cells. In addition, at thioredoxin (TRX), the “inhibitory range on TRX” value is 10 to 300 µM. Also, in the assay with thrombus formation, the “thrombus size (maximum fluorescence intensity), in words” value is recorded as “reduction in thrombus size”. For the same compound, the “fibrinogen binding (fluorescence)” value in assay [1] (10 μM, CRP-XL stimulated, vehicle 12520 Au) amounted to 3696 Au. In assay [1] (Homo sapiens, Platelet, 10 μM, CRP-XL stimulated), this compound displayed an inhibition at 10 µM of 64.5%. Besides, in assay [1] (lower concentrations (below 10 μM)), the “fibrinogen binding (in words)” value was “trend towards inhibition”.
